Experimental data published in patent US20260061191A1, “Using Alternating Electric Fields to Increase Cell Membrane Permeability” (The Board of Trustees of the Leland Stanford Junior …, priority 2018, published 2026).

Assays:
U87-MG/eGFP-fLuc cells [1] = assay: Annexin-V-APC binding (early apoptosis), fluorescence microscopy; type: cell-based, human; conditions: 21 μM, TTFields-unexposed samples
Method: To test if the imposition of TTFields affects cell membrane properties, and thus membrane permeability, the effect of TTFields on the behavior of fluorescently tagged reagents that bind to the cellular membrane was determined. Initially, the impact of TTFields on the binding of Annexin-V-APC to the membrane of U87-MG/eGFP-fLuc cells was measured. Annexin-V-APC binding is a signature of early apoptosis which is characterized by ruffling of the membrane.

GBM39/Luc cells = assay: Drug sensitivity / synergy with TTFields; type: cell-based, human
U87-MG/GFP-Luc cells = assay: Drug sensitivity / synergy with TTFields; type: cell-based, human
human glioblastoma cells = assay: Growth inhibition by TTFields in conjunction with Withaferin A; type: cell-based; conditions: TTFields treatment in conjunction with Withaferin A
From the text: In this figure, 5-ALA=5-aminolevulinic acid; Ethidium D=ethidium bromide; and FITC=fluorescein isothiocyanate.

U87-MG cells [2] = assay: Timing of permeability to 7-AAD after alternating electric field, flow cytometry; type: cell-based, human; conditions: 300 kHz, 1.62 V/cm RMS, 24 hours; sample incubated with 7-AAD while subjected to the field (added 15 minutes prior to cessation)
Method: FIG. 7D depicts the results of an experiment to test how quickly the permeability drops back down after cessation of the alternating electric fields. More specifically, 7-Aminoactinomycin D (7-AAD) is a fluorescent chemical compound with a strong affinity for DNA. […] 7-AAD was introduced into samples at five different times: 15 minutes prior to the cessation of the alternating electric field; immediately after cessation of the alternating electric field […]. In each case, the cells were incubated with 7-AAD for 30 minutes after introduction of the 7-AAD, followed by flow cytometry analysis of the percentage of cells with increased accumulation of the fluorescent 7-AAD for each of the different timings.

[3] = test system: MDA-MB-435 human melanoma cell line cells; assay: Permeability of cell membranes to 7-AAD, flow cytometry; type: cell-based
Method: After this 15 minute period, alternating electric field application was terminated and the cells were incubated at room temperature for an additional 15 minutes.
After this 24 hour period, the alternating electric fields were turned off for 15 minutes, after which the 7-AAD was added. After waiting an additional 15 minutes, the percentage of cells with increased accumulation of the fluorescent 7-AAD was determined using flow cytometry.

[4] = test system: MDA-MB-435 cells, doxorubicin resistant; assay: Intracellular accumulation of doxorubicin under alternating electric field; conditions: 150 kHz, 1.62 V/cm, 23 hours, then 10 μM doxorubicin for one hour with field; vs no field
Method: (§1) In this experiment, both wild type and doxorubicin resistant variants of MDA-MB-435 cells were treated with an alternating electric field at 150 kHz with a field strength of 1.62 V/cm for 23 hours. After this 23 hour period, doxorubicin at a concentration of 10 μM was added and incubated for one hour, during which time the alternating electric fields was continued. The intracellular accumulation of doxorubicin was then measured.

[5] = test system: MDA-MB-435 cells, wild type; assay: as above; conditions: 150 kHz, 1.62 V/cm, 23 hours, then 10 μM doxorubicin for one hour with field; vs no field
Method: as §1

MDA-MB-235 cells = assay: Drug sensitivity / synergy with TTFields; type: cell-based
MES-SA cells = assay: Intracellular accumulation of doxorubicin under 150 kHz alternating electric field; conditions: 1.62 V/cm RMS, 24 hours, 10 μM doxorubicin for the last hour
Method: In this experiment, MES-SA cells were treated with an alternating electric field at 150 kHz with a field strength of 1.62 V/cm RMS for 24 hours. After the first 23 hours, doxorubicin at a concentration of 10 μM was added and incubated for one hour during which time the alternating electric fields was continued (to complete the 24 hour period). The intracellular accumulation of doxorubicin was then measured.

U87-MG/eGFP-fLuc cells [6] = assay: Ethidium D uptake under TTFields; type: cell-based, human; conditions: 200 kHz TTFields vs no TTFields, p<0.0001
From the text: Ethidium D permeates through both the plasma membrane and the nuclear membrane and intercalates into genomic DNA.

[7] = test system: human glioblastoma cells that have been modified to express luciferase
Method: U87-MG/eGFP-fLuc cells were seeded on Thermanox glass coverslips, allowed to settle and grow, and then subjected to either TTFields or no TTFields.
Bioluminescence imaging: For all bioluminescence work, we used genetically-modified GBM2, GBM39 and U87-MG whereby the glioblastoma cells were transfected with lentiviral vectors that expressed either firefly luciferase (fLuc for GBM39) or a fusion protein of GFP and firefly luciferase (GFP/fLuc for GBM2 and eGFP-fLuc for U87-MG) or a Renilla luciferase-Red Fluorescence protein fusion (RLuc-RL8 for KR158B).

glioblastoma patients = assay: Survival of glioblastoma patients treated with TTFields plus temozolomide; type: in vivo, human; conditions: TTFields plus temozolomide vs temozolomide alone, re-analysis of Ram et al.
From the text: The treatment of glioblastoma (GBM) using alternating electric fields is a novel, validated therapy that has become an additional modality (after surgery chemoradiation and chemotherapy) for anti-cancer treatments. Intermediate frequency alternating electric fields (100-500 kHz) have been studied in detail. […] In the context of treating tumors, alternating electric fields at these frequencies are often referred to as “tumor treating fields” or “TTFields.”
Recurrence of GBM is inevitable and the median time to first recurrence despite standard therapy is approximately 7 months. […] TTFields compliance (≥75% vs. <75%) was an independent predictor of overall survival in the retrospective analysis of the full EF-14 trial dataset and the duration of use of TTFields was also found to affect overall survival. […] Namely, a correlation between the length of TTFields exposure and the duration of its effect on cell membrane permeability after cessation of TTFields was observed. At lengths of TTFields exposure of 0.5-3 h, the duration in BLI augmentation (compared to no TTFields conditions) lasted about 5 min. However, at TTFields exposures of 12-25 h, this difference in BLI between TTFields and no TTFields conditions lasted for more than 20 min.

U87-MG cells [8] = assay: 5-ALA uptake (PpIX fluorescence), single U87-MG culture; type: cell-based, human
Method: Experiments were performed to determine the effects of TTFields on uptake of 5-ALA (as measured by PpIX accumulation and its resultant fluorescence) in glioblastoma cells. Because it is difficult to distinguish the margin between tumor and normal cells using the present 5-ALA bioassay, the measurement of PpIX fluorescence was used to address this issue. Investigations were run to determine whether permeation of 5-ALA through the cellular membrane and into the glioblastoma cells could be increased with TTFields exposure. U87-MG cells were exposed or unexposed to TTFields, each for durations of 6-24 h.
All monovariant statistical comparisons between no TTFields vs. TTFields samples done by Student's t-test for n=3 experiments per time point.

[9] = test system: U87-MG cells on PCS-201 fibroblasts co-culture; assay: 5-ALA uptake (PpIX fluorescence), U87-MG GBM on PCS-201 fibroblast co-cultures; type: cell-based, human
GBM39 cells = assay: Drug sensitivity with TTFields; type: cell-based, human; conditions: TTFields for 3 days vs control without TTFields
[10] = target: T1, purified firefly luciferase (Photinus pyralis, UniProt P08659); assay: Activity of purified firefly luciferase exposed to TTFields; type: biochemical; conditions: 200 kHz TTFields, 60 minutes after initiation of TTFields
T1 construct: purchased Sigma Aldrich Inc (St. Louis, MO) SRE0045-2MG
T1 sequence (P08659 whole entry): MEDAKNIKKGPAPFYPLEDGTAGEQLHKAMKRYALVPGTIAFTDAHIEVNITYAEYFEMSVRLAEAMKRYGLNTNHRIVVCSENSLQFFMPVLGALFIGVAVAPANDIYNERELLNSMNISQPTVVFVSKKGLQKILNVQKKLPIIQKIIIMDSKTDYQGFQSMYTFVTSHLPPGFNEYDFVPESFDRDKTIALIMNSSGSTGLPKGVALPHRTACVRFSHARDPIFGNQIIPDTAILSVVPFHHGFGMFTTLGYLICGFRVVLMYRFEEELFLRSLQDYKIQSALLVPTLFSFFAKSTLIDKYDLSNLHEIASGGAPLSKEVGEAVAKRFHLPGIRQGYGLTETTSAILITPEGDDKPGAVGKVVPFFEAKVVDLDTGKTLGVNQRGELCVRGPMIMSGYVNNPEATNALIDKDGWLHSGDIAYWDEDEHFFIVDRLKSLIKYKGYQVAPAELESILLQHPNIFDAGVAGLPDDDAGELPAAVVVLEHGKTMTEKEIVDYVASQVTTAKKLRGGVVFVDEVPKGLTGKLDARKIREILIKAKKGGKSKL

[11] = TTFields for 3 days vs control without TTFields

## CC1=C(CO)C(=O)O[C@@H]([C@@H](C)[C@H]2CC[C@H]3[C@@H]4C[C@H]5O[C@]56[C@@H](O)C=CC(=O)[C@]6(C)[C@H]4CC[C@]23C)C1 [Withaferin A]
U87-MG/eGFP-fLuc cells [1]
  Annexin-V-APC binding (positive control for apoptosis): could be visualized
pcGBM2/GFP-Luc cells
  synergy of the combination with TTFields: synergy was found
GBM39/Luc cells
  synergy of the combination with TTFields: synergy was found
U87-MG/GFP-Luc cells
  synergy of the combination with TTFields: synergy was found
Human glioblastoma cells
  growth of human glioblastoma cells: synergistically inhibited the growth

## Cc1c2oc3c(C)c(N)cc(C(=O)N[C@@H]4C(=O)N[C@H](C(C)C)C(=O)N5CCC[C@H]5C(=O)N(C)CC(=O)N(C)[C@@H](C(C)C)C(=O)O[C@@H]4C)c3nc-2c(C(=O)N[C@@H]2C(=O)N[C@H](C(C)C)C(=O)N3CCC[C@H]3C(=O)N(C)CC(=O)N(C)[C@@H](C(C)C)C(=O)O[C@@H]2C)c(N)c1=O [7-AAD, 7-Aminoactinomycin D]
U87-MG cells [2]
  percentage of cells with increased accumulation of 7-AAD: significant increase in accumulation
[3]; 150 kHz, 1.62 V/cm, 24 hours, 7-AAD added 15 minutes after fields were turned off
  percentage of cells with increased accumulation of 7-AAD: ~20%
[3]; 150 kHz, 1.62 V/cm, 24 hours, 7-AAD added for the last 15 minutes of the field
  percentage of cells with increased accumulation of 7-AAD: ~66%
[3]; control, same conditions, alternating electric fields not applied
  percentage of cells with increased accumulation of 7-AAD: less than 5%

## COc1cccc2c1C(=O)c1c(O)c3c(c(O)c1C2=O)C[C@@](O)(C(=O)CO)C[C@@H]3O[C@H]1C[C@H](N)[C@H](O)[C@H](C)O1 [doxorubicin]
[4]
  intracellular accumulation of doxorubicin: increased
[5]
  intracellular accumulation of doxorubicin: increased
MDA-MB-235 cells
  synergy of the combination with TTFields: Evidence of synergy
MDA-MB-235 cells; [11]
  sensitivity of cells to various concentrations of drug: improves the sensitivity
MES-SA cells
  increase of intracellular accumulation of doxorubicin: more than 2 X

## CC[n+]1c(-c2ccccc2)c2cc(N)ccc2c2ccc(N)cc21 [ethidium D, ethidium bromide]
U87-MG/eGFP-fLuc cells [6]
  ethidium D uptake: significantly increased

## Oc1ccc(Cc2nc3c(Cc4ccccc4)nc(-c4ccc(O)cc4)cn3c2O)cc1 [coelenterazine]
[7]
  permeation of the substrates through the plasma membrane (greater bioluminescence): increased permeation

## Cn1nnc2c(C(N)=O)ncn2c1=O [Temozolomide]
Glioblastoma patients; after 1 year of TTFields exposure
  percent increase in overall survival: 32%
Glioblastoma patients; after 5 years of TTFields exposure
  percent increase in overall survival: 551%

## NCC(=O)CCC(=O)O [5-ALA, 5-aminolevulinic acid]
U87-MG cells [8]; 6 h of TTFields exposure vs no TTFields, p=0.047
  uptake of 5-ALA (PpIX fluorescence): significantly increased uptake
U87-MG cells [8]; 24 h of TTFields exposure vs no TTFields, p=0.011
  uptake of 5-ALA (PpIX fluorescence): increase was maintained
[9]; TTFields exposure (by 24 h, p=0.043) vs no TTFields
  5-ALA uptake in the GBM cells compared to the fibroblast cells (ratio of PpIX fluorescence intensity): significantly increased
[9]; TTFields-exposed vs unexposed co-cultures, 2, 6 and 24 h, p<0.001
  rate of PpIX fluorescence intensity increase: significantly augmented

## O=NN(CCCl)C(=O)NC1CCCCC1 [Lomustine]
pcGBM2/GFP-Luc cells; [11]
  sensitivity of cells to various concentrations of drug: improves the sensitivity
GBM39 cells
  sensitivity of cells to various concentrations of drug: improves the sensitivity
U87-MG/GFP-Luc cells; [11]
  sensitivity of cells to various concentrations of drug: improves the sensitivity

## CCc1c2c(nc3ccc(OC(=O)N4CCC(N5CCCCC5)CC4)cc13)-c1cc3c(c(=O)n1C2)COC(=O)[C@]3(O)CC [Irinotecan]
GBM39/Luc cells
  synergy of the combination with TTFields: synergy was found
GBM39/Luc cells; [11]
  sensitivity of cells to various concentrations of drug: improves the sensitivity

## firefly luciferase: purified firefly luciferase (SRE0045-2MG) purchased from Sigma Aldrich
[10]
  loss in enzymatic activity: > 1000 fold
